Assay results taken from US7250410B2, “Cyclic nucleotide phosphodiesterase inhibitors, preparation and uses thereof” (Via Pharmaceuticals, Inc., priority 2001, dated 2007).

Experiments:
PDE2 = target: T1, PDE2 (Bos taurus, UniProt P14099); assay: Selectivity: inhibition of PDE2, radioenzymatic phosphodiesterase assay; format: biochemical, bovine; conditions: Table 4 Selectivity; compound at 10 μM; read-out: PDE2 percentage inhibition at 10 μM
T1 construct: PDE2 was prepared from bovine endothelial cells by the same methods; endogenous in cells; host or cells: bovine vascular endothelial cells, DEAE-Sephacel fraction
T1 sequence (P14099 1-921): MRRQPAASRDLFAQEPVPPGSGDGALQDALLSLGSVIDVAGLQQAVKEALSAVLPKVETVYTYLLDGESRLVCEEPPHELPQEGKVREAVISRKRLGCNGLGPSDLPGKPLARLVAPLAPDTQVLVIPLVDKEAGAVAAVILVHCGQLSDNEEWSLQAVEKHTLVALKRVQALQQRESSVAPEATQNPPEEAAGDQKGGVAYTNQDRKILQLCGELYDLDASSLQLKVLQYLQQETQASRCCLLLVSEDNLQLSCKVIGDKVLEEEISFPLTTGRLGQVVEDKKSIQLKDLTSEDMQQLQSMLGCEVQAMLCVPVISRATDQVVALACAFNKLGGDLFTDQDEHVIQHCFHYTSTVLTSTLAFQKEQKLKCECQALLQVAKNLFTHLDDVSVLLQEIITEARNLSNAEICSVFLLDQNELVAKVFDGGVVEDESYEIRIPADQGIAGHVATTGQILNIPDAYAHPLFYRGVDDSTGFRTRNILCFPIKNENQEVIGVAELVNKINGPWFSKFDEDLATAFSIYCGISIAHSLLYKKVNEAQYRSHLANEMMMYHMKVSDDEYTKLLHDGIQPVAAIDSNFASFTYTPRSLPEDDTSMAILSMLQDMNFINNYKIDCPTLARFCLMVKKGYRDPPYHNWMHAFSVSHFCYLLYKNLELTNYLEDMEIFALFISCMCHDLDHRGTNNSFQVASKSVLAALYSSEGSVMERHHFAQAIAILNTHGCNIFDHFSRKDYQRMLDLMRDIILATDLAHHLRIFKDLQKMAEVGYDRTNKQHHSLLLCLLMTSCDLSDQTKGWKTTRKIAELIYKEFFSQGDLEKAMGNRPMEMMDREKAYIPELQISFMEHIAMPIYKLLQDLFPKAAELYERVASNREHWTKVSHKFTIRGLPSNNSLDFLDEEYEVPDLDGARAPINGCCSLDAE
Method: (§1) A 3 g segment of bovine aortic media cut into pieces with scissors was homogenized with an ultra-turrax then a potter glass/glass homogenizer in 7 volumes by weight of buffer A containing a protease inhibitor cocktail (20 mM Tris-HCl, 0.25 M saccharose, 2 mM magnesium acetate, 1 mM dithiothreitol, 5 mM EGTA, 2000 U/ml aprotinin, 10 mg/l leupeptin and 10 mg/l soya trypsic inhibitor). The homogenizate was centrifuged at 105,000 g for 1 hour. The supernatant was loaded on a DEAE-Sephacel column (15×1.6 cm) pre-equilibrated with buffer B (buffer A without the saccharose, EGTA and protease inhibitors). The column was washed until there was no detectable absorption at 280 nm, then eluted with a linear gradient of NaCl (0–0.5 M) in buffer B. 3-ml fractions were collected and enzyme activity was determined under the conditions described hereinafter to localize the different enzymes PDE1, PDE3, PDE4 and PDE5, which were aliquoted and frozen at −80° C. (Lugnier et al., Biochem. Phamacol., 35 (1986) 1746–1751). PDE2 was prepared from bovine endothelial cells by the same methods (Lugnier and Schini, Biochem. Pharmacol. 1990, 39; 75–84).
(§2) Cyclic nucleotide phosphodiesterase activity was determined by a radioenzymatic method using tritium-labelled cyclic GMP or AMP (1 μM) as substrate (Lugnier et al., 1986). ^3H-labelled adenosine or guanosine monophosphate formed by hydrolysis of the radiolabelled cyclic nucleotide was then converted to ^3H-labelled adenosine or guanosine in a second reaction with […] in excess. The nucleoside formed was separated from the nucleotides by anion exchange chromatography. Nucleoside radioactivity was determined by liquid scintillation counting. Enzymatic incubations were carried out under conditions allowing no more than 15% hydrolysis of the substrate; each point was performed in duplicate.
(§3) The activity of the compounds was evaluated on other phosphodiesterase isoforms, particularly basal state or calmodulin-activated PDE1 from vascular smooth muscle, basal state or cyclic GMP-activated PDE2 from vascular endothelial cells, PDE3 and PDE5 from vascular smooth muscle.
(§4) The results obtained are presented in Table 4 hereinafter and are expressed as the percentage inhibition of enzymatic activity produced by […] of the tested compound.

IL1β, IL6 and IL8 = IL1β, IL6 and IL8 secretion by LPS-activated mononuclear cells from venous blood; format: cell-based, human
PDE3 = target: T2, PDE3 (Bos taurus, UniProt A0A3Q1M1E8); assay: Selectivity: inhibition of PDE3, radioenzymatic phosphodiesterase assay; format: biochemical, bovine; conditions: read-out: PDE3 percentage inhibition at 10 μM
T2 sequence (A0A3Q1M1E8 1-1126): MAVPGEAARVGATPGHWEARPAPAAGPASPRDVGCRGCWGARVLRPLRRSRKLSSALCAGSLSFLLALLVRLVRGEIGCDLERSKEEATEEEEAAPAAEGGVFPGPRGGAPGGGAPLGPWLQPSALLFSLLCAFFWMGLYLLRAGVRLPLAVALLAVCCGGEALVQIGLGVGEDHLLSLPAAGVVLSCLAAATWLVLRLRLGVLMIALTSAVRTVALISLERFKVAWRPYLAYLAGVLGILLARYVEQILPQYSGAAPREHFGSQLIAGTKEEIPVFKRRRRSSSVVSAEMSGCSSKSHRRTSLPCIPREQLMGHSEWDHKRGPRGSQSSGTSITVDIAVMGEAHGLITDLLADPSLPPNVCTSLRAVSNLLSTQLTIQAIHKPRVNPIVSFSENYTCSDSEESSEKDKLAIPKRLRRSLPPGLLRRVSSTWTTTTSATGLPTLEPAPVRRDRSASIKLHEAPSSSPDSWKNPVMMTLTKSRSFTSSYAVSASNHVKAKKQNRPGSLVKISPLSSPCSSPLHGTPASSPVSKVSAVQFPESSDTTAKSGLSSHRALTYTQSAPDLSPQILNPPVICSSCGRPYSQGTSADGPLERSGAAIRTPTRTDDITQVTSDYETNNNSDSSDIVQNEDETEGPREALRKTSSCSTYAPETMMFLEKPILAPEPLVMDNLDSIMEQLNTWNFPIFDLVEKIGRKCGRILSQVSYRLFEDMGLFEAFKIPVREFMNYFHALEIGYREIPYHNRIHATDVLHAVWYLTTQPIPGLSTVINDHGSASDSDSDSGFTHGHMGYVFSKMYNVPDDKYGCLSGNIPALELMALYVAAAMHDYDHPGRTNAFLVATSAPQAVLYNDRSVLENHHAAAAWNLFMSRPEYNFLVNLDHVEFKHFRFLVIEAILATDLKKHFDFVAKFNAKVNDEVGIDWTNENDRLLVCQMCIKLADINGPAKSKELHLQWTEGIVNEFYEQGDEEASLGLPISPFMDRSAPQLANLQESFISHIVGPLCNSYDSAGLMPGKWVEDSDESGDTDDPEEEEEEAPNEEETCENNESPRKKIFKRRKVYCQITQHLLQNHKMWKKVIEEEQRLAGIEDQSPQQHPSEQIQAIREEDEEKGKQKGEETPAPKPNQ
Method: as §1, §2, §3, §4

Compound | inhibition at 10 µM (PDE2) | IL1β, IL6 and IL8 secretion levels (IL1β, IL6 and IL8; compound at 1 μM) | inhibition at 10 µM (PDE3) | inhibition of the secretion of IL1β (IL1β, IL6 and IL8; in words)
CCOc1cc2c(cc1OC)C(c1ccccc1)=NCC(=O)N2C [IIda, 8-ethoxy-7-methoxy-1-methyl-5-phenyl-1,3-dihydro-2H-1,4-benzodiazepin-2-one] | 7% | not at all altered | 47% | 
CCOc1cc2c(cc1OCC)C(c1ccccc1)=NCC(=O)N2 [XXIIag, 7,8-diethoxy-5-phenyl-1,3-dihydro-2H-1,4-benzodiazepin-2-one] | 17% |  | 22% | capable of inhibiting the secretion
